Source: patent US20100104546A1, “MODULATORS OF ANTIGEN-DEPENDENT T CELL PROLIFERATION” (CHILDREN, YOUTH AND WOMEN'S HEALTH SERVICE, priority 2007, published 2010)

How the values were obtained:
splenocytes [1] = assay: Mitogen (PHA/PMA, PMA/A23187, PHA)-stimulated splenocyte adhesion and proliferation, ex vivo; assay type: in vivo, mice
Experimental: (A) β-oxa-21:3n-3 or vehicle was injected intraperitoneally to 5 day SRBC-sensitized mice. After 2 h splenocytes (1×10^6 cells) were cultured in a 24 well tissue culture plate (Nunc, Inc. […] Cells were fixed with 2% Para formaldehyde and inspected under a light microscopy and photographed. (B) β-oxa-21:3n-3 or vehicle was injected intraperitoneally or intravenously to 5 day SRBC-sensitized mice. After 2 h splenocytes (0.2 million) were cultured in a 96 well tissue culture plate (Nunc, Inc. Denmark) in the presence of PHA and PMA (PHA/PMA) or PMA (10 ng/ml) and A23187 ([…]) (PMA/A23187) for 3 days. Thymidine incorporation for final 16 hours of culture was determined. The data represents the mean±SEM of 3 separate experiments each conducted in quintuplets.
6-7 weeks old Balb/c mice were injected subcutaneously with 100 μl of 10% sheep red blood cells (IMVS, Inc., Adelaide, Australia) After 5 days 100 ul of β-oxa-21:3n-3 at indicated amounts were injected intraperitoneally, intravenously or gavaged orally. In another experimental set up mice were given β-tha-21:3n-3 i.p. In a third approach mice were infected subcutaneously with 100 μl of Tetanus Toxoid (2,500 Lf/ml). Then 7 days later were given β-oxa-21:3n-3. At indicated time points mice were sacrificed and spleens were removed. Single cell suspensions were prepared and white blood cells (WBC) were enriched by passing through Ficoll-Paque Plus (GE Healthcare). Cells were washed with RPMI-1640 containing 10% fetal bovine serum, 10 mM Hepes, antibiotics and glutamine (RPMI-10) and counted using an automated Cell-Dyne 3500R (Abbott, Inc. MA) instrument. Cells were viable (>98%) as judged by trypan blue exclusion. (β-oxa-21:3n-3)- or vehicle-treated mouse samples (200,000/well) were mixed either with SRBC (600,000/well) with 100 μl of Tetanus toxoid (50 Lf/ml) or phytohaemaglutinin (PHA) (2 μg/ml) or with PHA plus phorbol myristate acetate (PMA) (10 ng/ml) or with PMA plus calcium ionophore A23187 ([…]). Cells were cultured in 96 well U bottom plates (Nunc, Inc. Denmark) for 3 days (except for TT −5 days) at 37° C. under humidified air containing 5% CO2. At some instances 50 μl of supernatants were transferred to a new plate and frozen immediately at −70° C. to be used for cytokine measurements. Thymidine (50 μl, 1 μCi/well) was added at final 16 hours of culture. Cells were harvested and thymidine incorporation was determined using a beta scintillation counter.
To assess whether or not the immunosuppression observed was restricted to antigen-dependent stimulation, we explored the effect of β-oxa-21:3n-3 on mitogen-induced splenocyte adhesion and proliferation. […] The cells were cultured for 3 days and the extent of proliferation was assessed by thymidine incorporation.

Human PBMC = assay: Human lymphocyte proliferation assay, antigen (tetanus toxoid)-induced; assay type: cell-based
Experimental: Peripheral blood mononuclear cells were purified from the blood of normal volunteers using hypagn-ficoll density gradient separation. In the assay 100 μl of PBM (treated or untreated) at a concentration of 2×10^6/ml were stimulated by the addition of 100 μl of PHA (μg/ml) or […] 2 μg/ml TT in microtitre plates. The cultures contained 5% human blood group AB serum. The cells were incubated at 37° C. in 5% CO2-air and high humidity for 72 h or 5 days (for TT). The cultures were pulsed with 1 μl of 3H-TdR 6 h prior to harvest. The amount of radioactivity incorporated was determined to assess the degree of lymphoproliferation.
To attempt to resolve this discrepancy, we examined the sensitivity of the antigen-induced (tetanus toxoid) human lymphocyte response in vitro, under the same conditions as those in which the PHA-induced response were inhibited by β-oxa21:3n-3. Human PBMC which were known to show lymphoproliferation in response to TT were pretreated with a range of concentrations of β-oxa21:3n-3 and then stimulated with TT. Proliferation was quantitated after […] of incubation of cultures. […] Using purified human T cells which were stimulated with PHA-PMA we were able to ascertain that when β-oxa21:3n-3 was added to cells the stimulated cells contained 30 fold more β-oxa-21:3n-3 than resting T cells (FIG. 5B).

spleen cells = assay: Viability and composition of splenic cells by microscopy and flow cytometry; assay type: in vivo, mice
Experimental: Data acquisition was performed using a BD Immunocytometry Systems four-color FACScalibur (Mountain View, Calif.), and the acquired data were analyzed using FloJo software (Tree Star Inc., Palo Alto, Calif.).
To exclude that this effect of β-oxa-21:3n-3 was not due to necrosis or apoptosis of the splenic cells, we examined the viability and composition of live splenic cells from animals treated with this fatty acid, by microscopy and flow cytometry.

human lymphocytes = assay: Human lymphocyte proliferation assay, mitogen (PHA)-induced; assay type: cell-based; details: PHA-stimulated human lymphocytes, in vitro; read-out: IC50 for the PHA-stimulated response
splenocytes [2] = assay: Tetanus toxoid (TT)-induced ex vivo lymphocyte proliferation after administration to TT-immunized mice; details: 10, 40 and 80 mg/kg i.p. in mouse serum, spleens removed 2 h later
Experimental: Mice were immunized with SRBC. After 5 days they were given β-thia-21:3n-3 at the indicated doses i.p. After 2 hours the spleens were removed and processed into single cell suppressions. These were then cultured in the presence (□), or absence of (▪) of SRBC to assess the proliferation. The results are expressed as mean±SEM of 3 experiments. (B) Effect of β-oxa-21:3n-3 on tetanus toxoid (TT)-induced ex vivo lymphocyte responses. Mice were immunized with TT subcutaneously and after 7 days were given β-oxa-21:3n-3 in mouse serum, intraperitoneally. Two hours later the spleen removed, single cell suspension prepared and examined for lymphoproliferation responses to TT in 5 day cultures. The results are expressed as mean±SEM of 3 experiments.
6-7 weeks old Balb/c mice were injected subcutaneously with 100 μl of 10% sheep red blood cells (IMVS, Inc., Adelaide, Australia) After 5 days 100 ul of β-oxa-21:3n-3 at indicated amounts were injected intraperitoneally, intravenously or gavaged orally. […] Cells were washed with RPMI-1640 containing 10% fetal bovine serum, 10 mM Hepes, antibiotics and glutamine (RPMI-10) and counted using an automated Cell-Dyne 3500R (Abbott, Inc. MA) instrument. […] Cells were harvested and thymidine incorporation was determined using a beta scintillation counter. […]

[3] = IP- or IV-administered, 3 days culture, thymidine incorporation

SMILES: CC/C=C\C/C=C\C/C=C\CCCCCCCCOCC(=O)O [β-oxa-21:3n-3]
- splenocyte proliferation in response to PHA-PMA (splenocytes [1]; [3]): not affected in their responsiveness
- splenocyte proliferation in response to PMA-A23187 (splenocytes [1]; [3]): not affected in their responsiveness
- splenocyte adherence (splenocytes [1]; PHA and PMA stimulation for 4 h, SRBC pre-sensitized mice): not affected
- splenocyte proliferation in response to PHA alone (splenocytes [1]; not shown): did not affect
- sensitivity of antigen-induced response relative to mitogenic response (Human PBMC; TT versus PHA IC50): 15 fold
- IC50 (Human PBMC; tetanus toxoid-stimulated human PBMC, in vitro, read-out: IC50 for the inhibition of the antigen-induced response): 2 µM
- viable cells (excluded propidium iodide) (spleen cells; spleen cells from treated SRBC-sensitized mice): > 95%
- viable cell numbers versus vehicle-treated mice (spleen cells; spleen cells, SRBC-sensitized mice): no major difference
- IC50 (human lymphocytes): 30 µM
- lymphoproliferation in response to TT (splenocytes [2]): capable of inhibiting the response
